Consider 14 compounds from PubChem BioAssay (NCI).

Some test systems named below: 786-0 renal; DU-145 prostate; HCT-116 colon; IGROV1 ovarian; MALME-3M melanoma; PC-3 prostate; SF-295 CNS; SK-OV-3 ovarian; UO-31 renal; NCI-H226 lung.
Common to all, as to assay: NCI tumour cell line growth inhibition, 48 h

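How tested: cells in 96-well plates exposed to compound for 48 hours at five concentrations. GI50 marks 50% less growth. TGI is the concentration that stops growth completely.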

Consider `N#C[C@H]1Nc2ccccc2[C@@H](O)C1O` (some centres not stated), for which the TGI in the assay on 786-0 renal, in the assay with DU-145 prostate, with HCT-116 colon, in the assay on IGROV1 ovarian, in the assay with MALME-3M melanoma and in the assay on PC-3 prostate was more than 100 µM throughout. Also, the TGI with SF-295 CNS and in the assay on SK-OV-3 ovarian was more than 100 µM each time.

Regarding `OCc1ccc(Oc2c3ccccc3nc3occc23)cc1`, the GI50 with 786-0 renal was 33.9 µM; in the assay on DU-145 prostate it was 33.6 µM; in the assay with HCT-116 colon, 15.9 µM; in the assay with IGROV1 ovarian, 45.6 µM; with PC-3 prostate, 31.8 µM; in the assay with SF-295 CNS, 15.5 µM. The GI50 with SK-OV-3 ovarian was 36.8 µM; in the assay on UO-31 renal, 77.2 µM. In addition, the TGI in the assay on 786-0 renal is more than 100 µM; in the assay on DU-145 prostate, more than 100 µM; in the assay with HCT-116 colon it was 29.4 µM; with IGROV1 ovarian, more than 100 µM; in the assay with PC-3 prostate, more than 100 µM; in the assay with SF-295 CNS it was 35.9 µM. For the same compound, the TGI in the assay on SK-OV-3 ovarian and in the assay with UO-31 renal was more than 100 µM each time.

Take `COc1ccc(-c2csc3c2-n2cccc2C3=O)cc1O`: the GI50 is 0.0977 µM with 786-0 renal; 0.0271 µM in the assay with HCT-116 colon; 0.824 µM in the assay with IGROV1 ovarian; 35.3 µM in the assay with MALME-3M melanoma; 12.1 µM in the assay with NCI-H226 lung; 0.265 µM in the assay with PC-3 prostate. In addition, the GI50 in the assay on SF-295 CNS was 0.5 µM; in the assay with SK-OV-3 ovarian, 0.0452 µM; in the assay on UO-31 renal it was 0.401 µM. Further, the TGI in the assay with 786-0 renal was 25.2 µM; in the assay with HCT-116 colon it was 17 µM; in the assay with IGROV1 ovarian it was more than 47.3 µM; in the assay with MALME-3M melanoma, more than 100 µM; in the assay with NCI-H226 lung, more than 46.6 µM; in the assay on PC-3 prostate, more than 100 µM. The TGI with SF-295 CNS was more than 100 µM; in the assay with SK-OV-3 ovarian it was 18.1 µM; in the assay on UO-31 renal, 50.6 µM.

Turning to `CC[C@@]1(O)C(=O)OCc2c1cc1n(c2=O)Cc2cc3c(NC(=O)CN)cccc3nc2-1`, the TGI with 786-0 renal is 3 µM; with DU-145 prostate, 1.98 µM; with HCT-116 colon, more than 56.1 µM; in the assay on IGROV1 ovarian it was more than 100 µM; with NCI-H226 lung, 3.79 µM; in the assay on PC-3 prostate, more than 100 µM. For the same compound, the TGI in the assay on SF-295 CNS came to 20.4 µM; in the assay with SK-OV-3 ovarian, 25.3 µM; in the assay with UO-31 renal, 3.55 µM.

On to `C=C1C(=O)O[C@H]2C[C@@H]1CCC1(C)OC1CC/C(C)=C/CC[C@H]2C` (some centres not stated), for which the GI50 is 18.4 µM in the assay with 786-0 renal; 17.7 µM with HCT-116 colon; 35 µM with IGROV1 ovarian; 18.7 µM in the assay with NCI-H226 lung; 19.4 µM in the assay with PC-3 prostate; 12.3 µM in the assay with SF-295 CNS. Further, the GI50 in the assay with SK-OV-3 ovarian was 19.3 µM; in the assay with UO-31 renal, 29.8 µM. For the same compound, the TGI with 786-0 renal stood at 33.1 µM; with HCT-116 colon, 31.5 µM; in the assay with IGROV1 ovarian, 96.8 µM; with NCI-H226 lung it was 39.4 µM; with PC-3 prostate, 33.5 µM; with SF-295 CNS it was 26.3 µM. For the same compound, the results for the TGI with SK-OV-3 ovarian and in the assay on UO-31 renal were 37.1 µM and 86.6 µM, respectively.

For `COc1cc(OC)cc(-c2cncn2-c2ccc(-c3nc4cc(OC)cc(OC)c4s3)cc2)c1`, the GI50 with 786-0 renal is 7.6 µM; with DU-145 prostate it was more than 100 µM; in the assay on HCT-116 colon, 4.94 µM; with IGROV1 ovarian, 5.07 µM; in the assay with NCI-H226 lung, 18.5 µM; in the assay on SF-295 CNS it was 2.4 µM. Further, the GI50 in the assay on SK-OV-3 ovarian is 4.69 µM. In addition, the TGI is more than 100 µM in the assay on 786-0 renal; more than 100 µM in the assay with DU-145 prostate; more than 100 µM in the assay with HCT-116 colon; more than 100 µM in the assay on IGROV1 ovarian; more than 100 µM with NCI-H226 lung; 43.1 µM in the assay with SF-295 CNS. Moreover, the TGI in the assay with SK-OV-3 ovarian was more than 100 µM.

`Cc1cn2c(=O)n(c1=O)Cc1ccccc1C2`: the GI50 in the assay with 786-0 renal was 68.7 µM; in the assay on DU-145 prostate it was more than 100 µM; in the assay with HCT-116 colon, 27.3 µM; in the assay on IGROV1 ovarian, 41.7 µM; in the assay with MALME-3M melanoma, more than 100 µM; in the assay on PC-3 prostate it was more than 100 µM. Also, the GI50 was more than 100 µM in the assay on SF-295 CNS, 5.79 µM with SK-OV-3 ovarian and 32.3 µM in the assay on UO-31 renal. Moreover, the TGI with 786-0 renal, with DU-145 prostate, in the assay on HCT-116 colon, in the assay with IGROV1 ovarian, with MALME-3M melanoma and in the assay on PC-3 prostate was more than 100 µM each time. Moreover, the TGI in the assay with SF-295 CNS, in the assay with SK-OV-3 ovarian and in the assay on UO-31 renal was more than 100 µM throughout.

For `CN(C)S(=O)(=O)c1ccc(Nc2ccc(O)c3c2C(=O)c2c([N+](=O)[O-])ccc(O)c2C3=O)cc1`, the TGI with 786-0 renal, in the assay with DU-145 prostate, with HCT-116 colon, in the assay with IGROV1 ovarian, in the assay with MALME-3M melanoma and in the assay with PC-3 prostate was more than 100 µM throughout. In addition, the TGI with SF-295 CNS, in the assay on SK-OV-3 ovarian and in the assay with UO-31 renal was more than 100 µM throughout.

`CCOC(=O)C1=C(c2ccccc2)N(c2ccc(OC)cc2)[C@]2(C#N)C(O)=C(Cl)C(Cl)=C(O)[C@]12C#N`: the GI50 in the assay on 786-0 renal is 21.8 µM; in the assay with DU-145 prostate it was 31.9 µM; in the assay on HCT-116 colon, 16.3 µM; with IGROV1 ovarian, 21.7 µM; in the assay on MALME-3M melanoma it was 18.7 µM; with NCI-H226 lung, 20.2 µM. The GI50 in the assay on SF-295 CNS is 25.9 µM; in the assay on SK-OV-3 ovarian, 23.4 µM; in the assay on UO-31 renal it was 24.6 µM. Moreover, the TGI was 44.9 µM with 786-0 renal; more than 100 µM in the assay with DU-145 prostate; 29.8 µM with HCT-116 colon; 48.6 µM with IGROV1 ovarian; 42.6 µM with MALME-3M melanoma; 42.5 µM in the assay with NCI-H226 lung. In addition, the values for the TGI in the assay on SF-295 CNS, in the assay with SK-OV-3 ovarian and in the assay with UO-31 renal were 76.7 µM, 62.7 µM and 68 µM, respectively.

In the case of `COc1cc2c3c(n(CCCNCCNCCCN)c(=O)c2cc1OC)-c1cc2c(cc1C3=O)OCO2`, the GI50 in the assay with 786-0 renal was 3.24 µM; with DU-145 prostate, 4.6 µM; in the assay with HCT-116 colon, 1.29 µM; with IGROV1 ovarian, 1.04 µM; in the assay on NCI-H226 lung, 2.06 µM; with PC-3 prostate it was 13.2 µM. The GI50 in the assay on SF-295 CNS was 2.79 µM; in the assay on SK-OV-3 ovarian, 8.08 µM; with UO-31 renal it was 5.67 µM. Besides, the TGI in the assay with 786-0 renal was 14.5 µM; in the assay on DU-145 prostate it was 17 µM; in the assay with HCT-116 colon, 2.56 µM; in the assay with IGROV1 ovarian, 7.09 µM; with NCI-H226 lung it was 7.06 µM; with PC-3 prostate it was 56.3 µM. In addition, the TGI is 17.4 µM in the assay on SF-295 CNS, more than 100 µM with SK-OV-3 ovarian and 23.6 µM in the assay on UO-31 renal.

As to `COc1ccc(/C=C\c2cc(OC)c(OC)c(OC)c2)cc1OCC(=O)Nc1nc2ccc(OC(F)(F)F)cc2s1`, the GI50 with 786-0 renal is 54.3 µM; with DU-145 prostate, 4.11 µM; in the assay on HCT-116 colon, 3.92 µM; in the assay on IGROV1 ovarian it was 5.64 µM; with NCI-H226 lung, 4.3 µM; in the assay with PC-3 prostate, 5.12 µM. Further, the GI50 was 3.7 µM in the assay with SF-295 CNS, 8.42 µM in the assay with SK-OV-3 ovarian and 4.37 µM in the assay with UO-31 renal. Moreover, the TGI was more than 100 µM in the assay with 786-0 renal; more than 100 µM in the assay on DU-145 prostate; more than 100 µM in the assay with HCT-116 colon; more than 100 µM with IGROV1 ovarian; 62.2 µM in the assay on NCI-H226 lung; more than 100 µM in the assay on PC-3 prostate. Also, the TGI in the assay on SF-295 CNS, in the assay with SK-OV-3 ovarian and in the assay on UO-31 renal was more than 100 µM in each case.

For `COc1cc2c3c(n(C)c(=O)c2cc1OC)-c1cc2c(cc1/C3=C/[C@H](N)CCCCN)OCO2`, the GI50 in the assay with 786-0 renal is 1.68 µM; with DU-145 prostate, 1.07 µM; with HCT-116 colon, 0.564 µM; in the assay on IGROV1 ovarian, 1.27 µM; in the assay with MALME-3M melanoma, 0.0491 µM; with PC-3 prostate it was 2 µM. Besides, the GI50 in the assay on SF-295 CNS is 0.401 µM; in the assay on SK-OV-3 ovarian, 1.4 µM; in the assay on UO-31 renal, 3.14 µM. The TGI in the assay on 786-0 renal stood at 18 µM; with DU-145 prostate, 50 µM; in the assay with HCT-116 colon, 2.24 µM; in the assay on IGROV1 ovarian, 7.43 µM; with MALME-3M melanoma it was 0.7 µM; with PC-3 prostate it was 27.5 µM. For the same compound, the TGI was 3.31 µM in the assay with SF-295 CNS, more than 24.7 µM in the assay on SK-OV-3 ovarian and 23 µM with UO-31 renal.

As for `COc1ccc(C2=C(c3cc(OC)c(OC)c(OC)c3)C(=O)OC2)cc1OC`, the GI50 in the assay with 786-0 renal is 0.0522 µM; with DU-145 prostate it was 0.821 µM; in the assay on HCT-116 colon, 0.0548 µM; in the assay on IGROV1 ovarian it was 0.353 µM; in the assay on NCI-H226 lung, 6.06 µM; in the assay with PC-3 prostate it was less than 0.0151 µM. Besides, the GI50 in the assay with SF-295 CNS was less than 0.01 µM; in the assay on SK-OV-3 ovarian, 8.27 µM; in the assay with UO-31 renal, 0.284 µM. Moreover, the TGI with 786-0 renal is more than 62.3 µM; with DU-145 prostate, more than 100 µM; in the assay on HCT-116 colon it was 55.5 µM; in the assay with IGROV1 ovarian, more than 55.6 µM; with NCI-H226 lung, more than 28.5 µM; with PC-3 prostate it was more than 100 µM. In addition, the TGI in the assay on SF-295 CNS was 0.0217 µM; in the assay with SK-OV-3 ovarian, more than 100 µM; in the assay with UO-31 renal, more than 50.9 µM.

Turning to `CN(C)CCNC(=O)c1nc([N+](=O)[O-])cn1C`, the TGI in the assay on 786-0 renal, with DU-145 prostate, in the assay on HCT-116 colon, in the assay on IGROV1 ovarian, in the assay on MALME-3M melanoma and in the assay on PC-3 prostate was more than 100 µM in each case. Besides, the TGI with SF-295 CNS, in the assay with SK-OV-3 ovarian and in the assay on UO-31 renal was more than 100 µM throughout.
